Experimental data: PMC9856672, “SGC-CAMKK2-1: A Chemical Probe for CAMKK2” (Cells, 2023)
pIC50: −log10 of the molar value.

Assays:
PIM2 = PIM2 (Homo sapiens, UniProt Q9P1W9); test: PIM2 inhibition at Reaction Biology Corporation; type: biochemical; parameters: purchased Reaction Biology Corporation; details: n = 1, read-out: PIM2 Enzyme IC50
HIPK2 = target: T1, HIPK2 (Homo sapiens, UniProt Q9H2X6); test: KINOMEscan 1 μM, HIPK2; type: binding; details: 1000 nM; Entrez HIPK2; read-out: Percent Control
T1 construct: purchased Eurofins DiscoverX KINOMEscan
Excerpt: (§1) Supplement cells-12-00287-s001.zip/File S2. KinomeScan data for the CAMKK2 probe and negative control.xlsx, sheet "SGC-CAMKK2-1" | column: Percent Control

SYK = target: T2, SYK (Homo sapiens, UniProt P43405); test: KINOMEscan 1 μM, SYK; type: binding; details: 1000 nM; Entrez SYK; read-out: Percent Control
T2 construct: purchased Eurofins DiscoverX KINOMEscan
Excerpt: as §1

ADCK4 = target: T3, ADCK4 (Homo sapiens, UniProt Q96D53); test: KINOMEscan 1 μM, ADCK4; type: binding; details: 1000 nM; Entrez ADCK4; read-out: Percent Control
T3 construct: purchased Eurofins DiscoverX KINOMEscan
Excerpt: as §1

FGFR4 = target: T4, FGFR4 (Homo sapiens, UniProt P22455); test: KINOMEscan 1 μM, FGFR4; type: binding; details: 1000 nM; Entrez FGFR4; read-out: Percent Control
T4 construct: purchased Eurofins DiscoverX KINOMEscan
Excerpt: as §1

CDKL1 = target: T5, CDKL1 (Homo sapiens, UniProt Q00532); test: KINOMEscan 1 μM, CDKL1; type: binding; details: 1000 nM; Entrez CDKL1; read-out: Percent Control
T5 construct: purchased Eurofins DiscoverX KINOMEscan
Excerpt: as §1

BMPR2 = target: T6, BMPR2 (Homo sapiens, UniProt Q13873); test: KINOMEscan 1 μM, BMPR2; type: binding; details: 1000 nM; Entrez BMPR2; read-out: Percent Control
T6 construct: purchased Eurofins DiscoverX KINOMEscan
Excerpt: as §1

DLK = target: T7, DLK (Homo sapiens, UniProt Q12852); test: KINOMEscan 1 μM, DLK; type: binding; details: 1000 nM; Entrez MAP3K12; read-out: Percent Control
T7 construct: purchased Eurofins DiscoverX KINOMEscan
Excerpt: as §1

TNIK = target: T8, TNIK (Homo sapiens, UniProt Q9UKE5); test: KINOMEscan 1 μM, TNIK; type: binding; details: 1000 nM; Entrez TNIK; read-out: Percent Control
T8 construct: purchased Eurofins DiscoverX KINOMEscan
Excerpt: as §1

EGFR(T790M) = target: T9, EGFR(T790M) (Homo sapiens, UniProt P00533, T790M); test: KINOMEscan 1 μM, EGFR(T790M); type: binding; details: 1000 nM; Entrez EGFR; read-out: Percent Control
T9 construct: purchased Eurofins DiscoverX KINOMEscan
Excerpt: as §1

AURKA = target: T10, AURKA (Homo sapiens, UniProt O14965); test: KINOMEscan 1 μM, AURKA; type: binding; details: 1000 nM; Entrez AURKA; read-out: Percent Control
T10 construct: purchased Eurofins DiscoverX KINOMEscan
Excerpt: as §1

JNK1 = target: T11, JNK1 (Homo sapiens, UniProt P45983); test: KINOMEscan 1 μM, JNK1; type: binding; details: 1000 nM; Entrez MAPK8; read-out: Percent Control
T11 construct: purchased Eurofins DiscoverX KINOMEscan
Excerpt: as §1

ROCK2 = target: T12, ROCK2 (Homo sapiens, UniProt O75116); test: DiscoverX KINOMEscan binding assay at 1 μM, ROCK2; details: Compound Concentration 1000 nM, read-out: Percent Control
T12 construct: purchased Eurofins DiscoverX KINOMEscan
Excerpt: as §1

FLT3(D835V) = target: T13, FLT3(D835V) (Homo sapiens, UniProt P36888, D835V); test: KINOMEscan 1 μM, FLT3(D835V); type: binding; details: 1000 nM; Entrez FLT3; read-out: Percent Control
T13 construct: purchased Eurofins DiscoverX KINOMEscan
Excerpt: as §1

[1] = target: T14, ABL1(F317L)-phosphorylated (Homo sapiens, UniProt P00519, F317L); test: KINOMEscan 1 μM, ABL1(F317L)-phosphorylated; type: binding; details: 1000 nM; Entrez ABL1; read-out: Percent Control
T14 construct: purchased Eurofins DiscoverX KINOMEscan
Excerpt: as §1

ARK5 = target: T15, ARK5 (Homo sapiens, UniProt O60285); test: KINOMEscan 1 μM, ARK5; type: binding; details: 1000 nM; Entrez NUAK1; read-out: Percent Control
T15 construct: purchased Eurofins DiscoverX KINOMEscan
Excerpt: as §1

PLK4 = target: T16, PLK4 (Homo sapiens, UniProt O00444); test: DiscoverX KINOMEscan binding assay at 1 μM, PLK4; details: Compound Concentration 1000 nM, read-out: Percent Control
T16 construct: purchased Eurofins DiscoverX KINOMEscan
Excerpt: as §1

SGK2 = target: T17, SGK2 (Homo sapiens, UniProt Q9HBY8); test: KINOMEscan at 1 μM, SGK2; type: binding; details: 1000 nM, read-out: Percent Control
T17 construct: purchased Eurofins DiscoverX KINOMEscan
Excerpt: (§2) Supplement cells-12-00287-s001.zip/File S2. KinomeScan data for the CAMKK2 probe and negative control.xlsx, sheet "SGC-CAMKK2-1N" | column: Percent Control

PHKG1 = target: T18, PHKG1 (Homo sapiens, UniProt Q16816); test: KINOMEscan at 1 μM, PHKG1; type: binding; details: 1000 nM, read-out: Percent Control
T18 construct: purchased Eurofins DiscoverX KINOMEscan
Excerpt: as §2

VEGFR2 = target: T19, VEGFR2 (Homo sapiens, UniProt P35968); test: KINOMEscan at 1 μM, VEGFR2; type: binding; details: 1000 nM, read-out: Percent Control
T19 construct: purchased Eurofins DiscoverX KINOMEscan
Excerpt: as §2

TNK2 = target: T20, TNK2 (Homo sapiens, UniProt Q07912); test: KINOMEscan at 1 μM, TNK2; type: binding; details: 1000 nM, read-out: Percent Control
T20 construct: purchased Eurofins DiscoverX KINOMEscan
Excerpt: as §2

LKB1 = target: T21, LKB1 (Homo sapiens, UniProt Q15831); test: KINOMEscan binding assay at 1 μM, LKB1; details: Compound Concentration 1000 nM; read-out: Percent Control
T21 construct: purchased Eurofins DiscoverX KINOMEscan
Excerpt: as §2

STK33 = target: T22, STK33 (Homo sapiens, UniProt Q9BYT3); test: KINOMEscan binding assay at 1 μM, STK33; details: Compound Concentration 1000 nM; read-out: Percent Control
T22 construct: purchased Eurofins DiscoverX KINOMEscan
Excerpt: as §2

CDK4-cyclinD1 = target: T23, CDK4-cyclinD1 (Homo sapiens, UniProt P11802); test: KINOMEscan at 1 μM, CDK4-cyclinD1; type: binding; details: 1000 nM, read-out: Percent Control
T23 construct: purchased Eurofins DiscoverX KINOMEscan
Excerpt: as §2

MET(Y1235D) = target: T24, MET(Y1235D) (Homo sapiens, UniProt P08581, Y1235D); test: KINOMEscan at 1 μM, MET(Y1235D); type: binding; details: 1000 nM, read-out: Percent Control
T24 construct: purchased Eurofins DiscoverX KINOMEscan
Excerpt: as §2

CSNK1G3 = target: T25, CSNK1G3 (Homo sapiens, UniProt Q9Y6M4); test: KINOMEscan at 1 μM, CSNK1G3; type: binding; details: 1000 nM, read-out: Percent Control
T25 construct: purchased Eurofins DiscoverX KINOMEscan
Excerpt: as §2

MRCKA = target: T26, MRCKA (Homo sapiens, UniProt Q5VT25); test: KINOMEscan at 1 μM, MRCKA; type: binding; details: 1000 nM, read-out: Percent Control
T26 construct: purchased Eurofins DiscoverX KINOMEscan
Excerpt: as §2

DYRK2 = target: T27, DYRK2 (Homo sapiens, UniProt Q92630); test: KINOMEscan at 1 μM, DYRK2; type: binding; details: 1000 nM, read-out: Percent Control
T27 construct: purchased Eurofins DiscoverX KINOMEscan
Excerpt: as §2

VPS34 = target: T28, VPS34 (Homo sapiens, UniProt Q8NEB9); test: KINOMEscan at 1 μM, VPS34; type: binding; details: 1000 nM, read-out: Percent Control
T28 construct: purchased Eurofins DiscoverX KINOMEscan
Excerpt: as §2

IKK-alpha = target: T29, IKK-alpha (Homo sapiens, UniProt O15111); test: KINOMEscan at 1 μM, IKK-alpha; type: binding; details: 1000 nM, read-out: Percent Control
T29 construct: purchased Eurofins DiscoverX KINOMEscan
Excerpt: as §2

RET(V804L) = target: T30, RET(V804L) (Homo sapiens, UniProt P07949, V804L); test: KINOMEscan at 1 μM, RET(V804L); type: binding; details: 1000 nM, read-out: Percent Control
T30 construct: purchased Eurofins DiscoverX KINOMEscan
Excerpt: as §2

DYRK1A = target: T31, DYRK1A (Homo sapiens, UniProt Q13627); test: KINOMEscan at 1 μM, DYRK1A; type: binding; details: 1000 nM, read-out: Percent Control
T31 construct: purchased Eurofins DiscoverX KINOMEscan
Excerpt: as §2

PAK4 = target: T32, PAK4 (Homo sapiens, UniProt O96013); test: KINOMEscan at 1 μM, PAK4; type: binding; details: 1000 nM, read-out: Percent Control
T32 construct: purchased Eurofins DiscoverX KINOMEscan
Excerpt: as §2

MEK6 = target: T33, MEK6 (Homo sapiens, UniProt P52564); test: KINOMEscan at 1 μM, MEK6; type: binding; details: 1000 nM, read-out: Percent Control
T33 construct: purchased Eurofins DiscoverX KINOMEscan
Excerpt: as §2

T5 sequence (Q00532 whole entry): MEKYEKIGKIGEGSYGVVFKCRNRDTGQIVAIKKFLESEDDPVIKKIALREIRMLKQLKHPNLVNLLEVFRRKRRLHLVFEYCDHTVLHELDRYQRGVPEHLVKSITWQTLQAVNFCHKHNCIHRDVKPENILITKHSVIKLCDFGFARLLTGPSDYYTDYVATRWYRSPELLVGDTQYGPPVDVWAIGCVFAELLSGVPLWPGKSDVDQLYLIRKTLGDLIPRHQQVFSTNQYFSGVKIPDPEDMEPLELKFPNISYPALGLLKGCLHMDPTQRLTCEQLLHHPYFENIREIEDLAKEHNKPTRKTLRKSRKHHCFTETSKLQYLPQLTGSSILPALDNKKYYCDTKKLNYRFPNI
T3 sequence (Q96D53 whole entry): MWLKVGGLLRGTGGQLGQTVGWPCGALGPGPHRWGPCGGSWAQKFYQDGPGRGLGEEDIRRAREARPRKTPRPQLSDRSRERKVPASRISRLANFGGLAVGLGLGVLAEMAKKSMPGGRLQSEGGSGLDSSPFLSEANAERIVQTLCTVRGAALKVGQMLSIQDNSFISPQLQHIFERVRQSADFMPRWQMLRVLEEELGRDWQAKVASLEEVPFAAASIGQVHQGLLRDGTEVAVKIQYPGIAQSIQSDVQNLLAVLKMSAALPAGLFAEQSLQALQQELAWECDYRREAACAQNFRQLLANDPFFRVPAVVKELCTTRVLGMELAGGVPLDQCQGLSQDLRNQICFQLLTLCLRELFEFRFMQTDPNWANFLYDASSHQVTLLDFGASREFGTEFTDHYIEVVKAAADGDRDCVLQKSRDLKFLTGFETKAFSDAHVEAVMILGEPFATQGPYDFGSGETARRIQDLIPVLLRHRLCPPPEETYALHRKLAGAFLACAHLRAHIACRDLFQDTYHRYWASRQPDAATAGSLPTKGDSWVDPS
T17 sequence (Q9HBY8 whole entry): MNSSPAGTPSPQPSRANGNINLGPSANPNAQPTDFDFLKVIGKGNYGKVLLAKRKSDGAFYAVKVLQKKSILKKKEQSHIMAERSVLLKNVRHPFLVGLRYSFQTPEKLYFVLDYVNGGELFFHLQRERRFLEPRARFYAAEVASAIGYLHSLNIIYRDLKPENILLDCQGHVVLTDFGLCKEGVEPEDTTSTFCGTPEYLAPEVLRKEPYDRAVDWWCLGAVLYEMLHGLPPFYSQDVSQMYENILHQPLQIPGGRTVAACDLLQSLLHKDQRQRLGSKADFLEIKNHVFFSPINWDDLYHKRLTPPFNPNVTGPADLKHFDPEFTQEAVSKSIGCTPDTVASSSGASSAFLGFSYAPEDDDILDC
T6 sequence (Q13873 27-1038): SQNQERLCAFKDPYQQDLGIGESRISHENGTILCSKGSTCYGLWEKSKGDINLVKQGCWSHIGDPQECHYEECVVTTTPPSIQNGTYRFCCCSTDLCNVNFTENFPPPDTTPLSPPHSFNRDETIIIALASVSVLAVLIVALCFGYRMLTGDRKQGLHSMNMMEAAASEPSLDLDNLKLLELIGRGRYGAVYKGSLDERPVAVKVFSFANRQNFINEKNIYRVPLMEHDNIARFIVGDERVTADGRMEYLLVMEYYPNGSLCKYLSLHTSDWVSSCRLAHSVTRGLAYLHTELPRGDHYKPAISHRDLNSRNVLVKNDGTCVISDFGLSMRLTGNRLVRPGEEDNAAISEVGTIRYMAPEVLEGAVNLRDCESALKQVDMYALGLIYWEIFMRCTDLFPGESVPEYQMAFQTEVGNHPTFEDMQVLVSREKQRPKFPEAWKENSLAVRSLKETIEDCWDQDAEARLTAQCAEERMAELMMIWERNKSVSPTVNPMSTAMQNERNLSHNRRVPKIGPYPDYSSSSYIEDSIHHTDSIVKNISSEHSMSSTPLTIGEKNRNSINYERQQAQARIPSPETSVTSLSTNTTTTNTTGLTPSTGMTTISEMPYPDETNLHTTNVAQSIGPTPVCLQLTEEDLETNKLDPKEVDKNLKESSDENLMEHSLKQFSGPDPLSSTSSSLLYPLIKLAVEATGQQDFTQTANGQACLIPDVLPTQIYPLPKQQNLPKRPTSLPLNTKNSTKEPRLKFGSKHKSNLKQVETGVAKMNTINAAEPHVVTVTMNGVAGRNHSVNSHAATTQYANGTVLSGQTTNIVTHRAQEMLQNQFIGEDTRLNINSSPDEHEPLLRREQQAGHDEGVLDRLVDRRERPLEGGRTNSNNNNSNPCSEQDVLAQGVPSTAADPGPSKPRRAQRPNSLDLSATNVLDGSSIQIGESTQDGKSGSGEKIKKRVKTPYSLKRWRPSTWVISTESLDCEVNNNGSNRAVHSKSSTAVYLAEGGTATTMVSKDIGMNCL
T26 sequence (Q5VT25 whole entry): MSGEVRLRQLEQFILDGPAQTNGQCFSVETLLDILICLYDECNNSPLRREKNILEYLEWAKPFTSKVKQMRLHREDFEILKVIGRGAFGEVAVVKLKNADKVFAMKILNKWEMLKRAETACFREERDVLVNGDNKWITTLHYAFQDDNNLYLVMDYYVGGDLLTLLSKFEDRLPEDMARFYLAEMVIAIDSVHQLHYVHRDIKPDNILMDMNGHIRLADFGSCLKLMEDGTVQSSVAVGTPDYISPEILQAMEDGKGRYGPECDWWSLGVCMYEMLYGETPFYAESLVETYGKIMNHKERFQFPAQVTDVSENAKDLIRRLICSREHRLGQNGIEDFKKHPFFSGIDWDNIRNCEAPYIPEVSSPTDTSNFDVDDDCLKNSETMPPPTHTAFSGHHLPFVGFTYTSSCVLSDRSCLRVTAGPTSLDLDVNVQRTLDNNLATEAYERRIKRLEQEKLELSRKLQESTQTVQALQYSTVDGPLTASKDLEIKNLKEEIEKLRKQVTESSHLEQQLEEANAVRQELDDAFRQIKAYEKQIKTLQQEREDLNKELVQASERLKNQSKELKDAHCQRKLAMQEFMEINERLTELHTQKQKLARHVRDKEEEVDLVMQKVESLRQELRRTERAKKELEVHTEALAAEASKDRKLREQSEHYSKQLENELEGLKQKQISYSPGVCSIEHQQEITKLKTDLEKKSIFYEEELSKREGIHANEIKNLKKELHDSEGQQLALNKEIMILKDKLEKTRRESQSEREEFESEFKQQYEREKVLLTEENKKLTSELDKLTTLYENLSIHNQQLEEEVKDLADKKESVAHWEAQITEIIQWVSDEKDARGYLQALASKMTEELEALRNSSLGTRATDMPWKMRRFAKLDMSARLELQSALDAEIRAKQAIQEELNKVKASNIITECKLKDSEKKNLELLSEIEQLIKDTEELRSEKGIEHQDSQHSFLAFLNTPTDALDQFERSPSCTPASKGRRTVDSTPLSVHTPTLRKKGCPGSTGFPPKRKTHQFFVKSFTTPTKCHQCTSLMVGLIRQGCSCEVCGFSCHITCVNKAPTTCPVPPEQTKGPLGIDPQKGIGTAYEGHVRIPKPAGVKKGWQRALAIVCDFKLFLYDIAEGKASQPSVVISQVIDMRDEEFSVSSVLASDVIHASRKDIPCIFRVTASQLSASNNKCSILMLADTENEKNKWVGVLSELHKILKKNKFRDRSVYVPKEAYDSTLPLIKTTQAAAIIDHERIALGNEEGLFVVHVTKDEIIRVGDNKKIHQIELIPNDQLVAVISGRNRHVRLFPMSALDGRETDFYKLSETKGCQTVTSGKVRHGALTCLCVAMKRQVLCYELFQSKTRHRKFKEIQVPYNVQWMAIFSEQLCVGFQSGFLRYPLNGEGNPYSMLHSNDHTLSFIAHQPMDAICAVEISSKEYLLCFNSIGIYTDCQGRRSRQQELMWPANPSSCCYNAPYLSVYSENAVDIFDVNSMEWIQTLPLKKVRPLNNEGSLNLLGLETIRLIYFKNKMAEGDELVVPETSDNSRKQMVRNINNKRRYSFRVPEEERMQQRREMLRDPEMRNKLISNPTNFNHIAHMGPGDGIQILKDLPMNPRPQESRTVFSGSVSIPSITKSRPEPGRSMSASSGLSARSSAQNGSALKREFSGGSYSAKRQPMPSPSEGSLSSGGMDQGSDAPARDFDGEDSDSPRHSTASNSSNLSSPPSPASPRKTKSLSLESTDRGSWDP
T28 sequence (Q8NEB9 whole entry): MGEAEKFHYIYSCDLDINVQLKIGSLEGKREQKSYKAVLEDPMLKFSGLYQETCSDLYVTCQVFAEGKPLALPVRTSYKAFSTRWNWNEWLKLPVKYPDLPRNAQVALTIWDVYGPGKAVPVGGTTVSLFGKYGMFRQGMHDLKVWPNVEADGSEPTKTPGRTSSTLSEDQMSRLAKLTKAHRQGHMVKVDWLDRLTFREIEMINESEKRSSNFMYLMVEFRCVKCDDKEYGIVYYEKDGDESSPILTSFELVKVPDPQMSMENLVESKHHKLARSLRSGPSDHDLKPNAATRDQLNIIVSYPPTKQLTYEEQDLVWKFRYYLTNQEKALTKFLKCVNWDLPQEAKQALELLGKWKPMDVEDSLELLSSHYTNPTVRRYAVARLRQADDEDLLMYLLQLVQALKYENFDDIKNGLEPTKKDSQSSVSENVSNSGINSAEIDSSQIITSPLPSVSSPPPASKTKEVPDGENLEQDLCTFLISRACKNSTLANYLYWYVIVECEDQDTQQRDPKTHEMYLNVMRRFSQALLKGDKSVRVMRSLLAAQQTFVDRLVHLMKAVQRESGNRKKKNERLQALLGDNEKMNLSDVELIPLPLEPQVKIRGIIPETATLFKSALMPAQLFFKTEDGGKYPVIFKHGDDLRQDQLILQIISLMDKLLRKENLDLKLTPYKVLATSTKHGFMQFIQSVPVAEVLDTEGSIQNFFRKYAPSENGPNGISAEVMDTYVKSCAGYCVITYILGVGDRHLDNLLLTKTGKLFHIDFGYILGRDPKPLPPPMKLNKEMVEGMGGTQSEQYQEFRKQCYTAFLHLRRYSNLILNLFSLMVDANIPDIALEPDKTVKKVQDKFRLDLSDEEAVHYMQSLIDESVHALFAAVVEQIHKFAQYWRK

## O=C(O)c1ccc(-c2coc3ncc(-c4ccccc4)cc23)cc1Cl [Compound 7]
PIM2
  pIC50: 5.72

## Cc1cccc(-c2cnc3occ(-c4ccc(C(=O)O)c(C5CCCC5)c4)c3c2)c1 [SGC-CAMKK2-1 (YL-36)]
HIPK2
  remaining binding at 1 µM: 100%
SYK
  remaining binding at 1 µM: 85%
ADCK4
  remaining binding at 1 µM: 100%
FGFR4
  remaining binding at 1 µM: 98%
CDKL1
  remaining binding at 1 µM: 100%
BMPR2
  remaining binding at 1 µM: 100%
DLK
  remaining binding at 1 µM: 100%
TNIK
  remaining binding at 1 µM: 92%
EGFR(T790M)
  remaining binding at 1 µM: 100%
AURKA
  remaining binding at 1 µM: 100%
JNK1
  remaining binding at 1 µM: 100%
ROCK2
  remaining binding at 1 µM: 100%
FLT3(D835V)
  remaining binding at 1 µM: 100%
[1]
  remaining binding at 1 µM: 100%
ARK5
  remaining binding at 1 µM: 100%
PLK4
  remaining binding at 1 µM: 100%

## O=C(O)c1ccc(-c2coc3ncc(-c4ccccc4)cc23)cc1Cl [SGC-CAMKK2-1N (UNC-YL-83)]
SGK2
  remaining binding at 1 µM: 73%
PHKG1
  remaining binding at 1 µM: 93%
VEGFR2
  remaining binding at 1 µM: 90%
TNK2
  remaining binding at 1 µM: 94%
LKB1
  remaining binding at 1 µM: 100%
STK33
  remaining binding at 1 µM: 100%
CDK4-cyclinD1
  remaining binding at 1 µM: 70%
MET(Y1235D)
  remaining binding at 1 µM: 91%
CSNK1G3
  remaining binding at 1 µM: 76%
MRCKA
  remaining binding at 1 µM: 96%
DYRK2
  remaining binding at 1 µM: 100%
VPS34
  remaining binding at 1 µM: 44%
IKK-alpha
  remaining binding at 1 µM: 75%
RET(V804L)
  remaining binding at 1 µM: 90%
DYRK1A
  remaining binding at 1 µM: 71%
PAK4
  remaining binding at 1 µM: 82%
MEK6
  remaining binding at 1 µM: 46%
